{"source": "patent US4371540A", "about": "“Nitroimidazoles of low toxicity and high activity as radiosensitizers of hypoxic tumor cells” (priority 1980, dated 1983)", "key": {"[1]": {"assay": "1-electron reduction potential / electron affinity", "type": "physicochemical", "conditions": "for E7^1 (1-electron reduction potential): Table 1; for electron affinity relative to MIS: in words"}, "in vivo [2]": {"assay": "in vivo", "conditions": "mouse"}, "physchem [3]": {"assay": "physchem", "conditions": "octanol:water"}, "tumors in vivo": {"tested_on": "tumors in vivo", "conditions": "tumors in vivo and cells; Brown and Lee, 1979; cited from earlier work"}, "[4]": {"assay": "plasma pharmacokinetics and neural tissue exposure (AUC) in dogs", "conditions": "for AUC / clearance: dog; for AUC: 500 umol/kg; for AUC PNS: peripheral nerve", "procedure": "(§1) The imidazoles were formulated in a 0.9% sodium chloride solution at a concentration of 5%. Doses of 0.25-1.0 mmole/kg of each compound were administered to normal adult, male cross-bred dogs and subsequent plasma concentrations were monitored by high performance liquid chromatography. Samples of brain, cerebrospinal fluid (CSF), and peripheral nerve (PNS) were removed for assay from similarly dosed dogs over the same test period."}, "BALB/c mice": {"tested_on": "BALB/c mice", "conditions": "for acute toxicity relative to MIS: from LD50 data of Table 1"}, "[5]": {"assay": "accelerated rotarod neurotoxicity test", "conditions": "for Dose to Give Equivalent Neurotoxicity Relative to MIS: daily dosing, MIS = 1; for factor by which less neurotoxic than MIS: at least a factor of", "source_text": "Performance and toxicity determinations were made after four-and-one-half weeks of daily dosing."}, "hypoxic tumor cells": {"tested_on": "hypoxic tumor cells", "conditions": "cited from earlier work"}, "[6]": {"assay": "peak tumor concentration in dogs bearing spontaneous tumors", "conditions": "for Mean Peak Tumor Concentration: dogs with spontaneous tumors, i.v. bolus 0.5 micromoles/g"}, "EMT6 tumor cells": {"tested_on": "EMT6 tumor cells", "assay": "radiosensitization of EMT6 tumor cells", "conditions": "in words"}, "physchem [7]": {"assay": "physchem", "conditions": "0.9% saline"}, "[8]": {"conditions": "method of Fujita et al"}, "[9]": {"conditions": "for tumor/brain ratio relative to MIS: i.p., EMT6 tumor bearing mice, FIGS. 1 and 2; for crossing of the blood/brain barrier relative to MIS: in words", "procedure": "Each test compound was formulated immediately before administration to the animals in Hanks' balanced salt solution at a concentration such that the volume injected intraperitoneally was 0.05 ml per g body weight.\nThe mice were injected intraperitoneally and at various times were bled by cardiac puncture under anesthesia. Plasma was obtained by centrifugation and stored frozen at -20° C. The tumor and whole brain were taken immediately after cardiac puncture and stored frozen at -20° C.\nThe brain/plasma ratio is the mean value from all the mice for each compound."}, "in vivo [10]": {"assay": "in vivo", "conditions": "dog", "procedure": "as §1"}, "[11]": {"assay": "plasma concentration after oral administration of acetate esters versus parent drugs", "type": "in vivo", "conditions": "mice, 4 or 5 mmole/kg"}, "[12]": {"conditions": "dogs, standardized for 0.5 mmole/kg"}}}
{"molecule": "O=[N+]([O-])c1nccn1CCN1CCOCC1", "values": [{"measurement": "E7^1 (1-electron reduction potential)", "setting": "[1]", "value": -390, "unit": "mV"}, {"measurement": "LD50", "setting": "in vivo [2]", "value": "~900", "unit": "mg/kg"}, {"measurement": "logP", "setting": "physchem [3]", "value": -0.0862}]}
{"molecule": "O=[N+]([O-])c1nccn1CC(O)CCl", "note": "(stereo not shown) [Compound 1]", "values": [{"measurement": "E7^1 (1-electron reduction potential)", "setting": "[1]", "value": -384, "unit": "mV"}, {"measurement": "LD50", "setting": "in vivo [2]", "value": "~180", "unit": "mg/kg"}, {"measurement": "logP", "setting": "physchem [3]", "value": 0.176}]}
{"molecule": "CCOCC(O)Cn1ccnc1[N+](=O)[O-]", "note": "(stereo not shown) [Compound 2]", "values": [{"measurement": "E7^1 (1-electron reduction potential)", "setting": "[1]", "value": -391, "unit": "mV"}, {"measurement": "LD50", "setting": "in vivo [2]", "value": "> 1100", "unit": "mg/kg"}, {"measurement": "logP", "setting": "physchem [3]", "value": 0.104}]}
{"molecule": "O=[N+]([O-])c1nccn1CC(O)CF", "note": "(stereo not shown) [Compound 4]", "values": [{"measurement": "E7^1 (1-electron reduction potential)", "setting": "[1]", "value": -383, "unit": "mV"}, {"measurement": "LD50", "setting": "in vivo [2]", "value": "~900", "unit": "mg/kg"}, {"measurement": "logP", "setting": "physchem [3]", "value": -0.357}]}
{"molecule": "O=[N+]([O-])c1nccn1CC(O)CO", "note": "(stereo not shown) [Compound 6]", "values": [{"measurement": "E7^1 (1-electron reduction potential)", "setting": "[1]", "value": -389, "unit": "mV"}, {"measurement": "LD50", "setting": "in vivo [2]", "value": 3100, "unit": "mg/kg"}, {"measurement": "logP", "setting": "physchem [3]", "value": -0.886}]}
{"molecule": "C[S+]([O-])CCn1ccnc1[N+](=O)[O-]", "note": "(stereo not shown) [Compound 7]", "values": [{"measurement": "LD50", "setting": "in vivo [2]", "value": "~2000", "unit": "mg/kg"}, {"measurement": "logP", "setting": "physchem [3]", "value": -1.22}]}
{"molecule": "O=C(Cn1ccnc1[N+](=O)[O-])NCC(O)CO", "note": "(stereo not shown) [Compound 10]", "values": [{"measurement": "E7^1 (1-electron reduction potential)", "setting": "[1]", "value": -392, "unit": "mV"}, {"measurement": "LD50", "setting": "in vivo [2]", "value": "> 6100", "unit": "mg/kg"}, {"measurement": "radiosensitizing activity relative to MIS", "setting": "tumors in vivo", "value": "significantly inferior to MIS"}, {"measurement": "logP", "setting": "physchem [3]", "value": -1.85}]}
{"molecule": "COCC(O)Cn1ccnc1[N+](=O)[O-]", "note": "(stereo not shown) [MIS, misonidazole, reference compound]", "values": [{"measurement": "E7^1 (1-electron reduction potential)", "setting": "[1]", "value": -389, "unit": "mV"}, {"measurement": "AUC", "setting": "[4]; cerebrospinal fluid", "value": 2660, "unit": "µM·h"}, {"measurement": "clearance", "setting": "[4]; plasma", "value": 1.5, "unit": "mL/min/kg"}, {"measurement": "AUC", "setting": "[4]; plasma", "value": 3680, "unit": "µM·h"}, {"measurement": "AUC PNS", "setting": "[4]; [12]", "value": "2.25 μ moles.hr.ml^ -1 or g^-1"}, {"measurement": "AUC Brain", "setting": "[4]; [12]", "value": "2.32 μ moles.hr.ml^ -1 or g^-1"}, {"measurement": "Acute LD50", "setting": "BALB/c mice; BALB/c mice (20-25 g)", "value": "1.8(1.3-2.6) mg/g"}, {"measurement": "Dose to Give Equivalent Neurotoxicity Relative to MIS", "setting": "[5]; four-and-one-half weeks", "value": 1}, {"measurement": "radiosensitization at recommended dose", "setting": "hypoxic tumor cells; conventional multifraction radiotherapy regime", "value": "suboptimal radiosensitization"}, {"measurement": "radiosensitizing activity relative to metronidazole", "setting": "hypoxic tumor cells; in words", "value": "greater radiosensitizing activity of the two compounds"}, {"measurement": "clinical limitation by toxicity", "setting": "hypoxic tumor cells; man, in words", "value": "limited by its neurotoxicity"}, {"measurement": "recommended maximum total dose (neurotoxicity)", "setting": "hypoxic tumor cells; man, per body surface, Dische et al", "value": "≤ 12", "unit": "g/m^2"}, {"measurement": "Mean Peak Tumor Concentration", "setting": "[6]", "value": 0.56, "unit": "μ moles.g^-1"}]}
{"molecule": "O=C(Cn1ccnc1[N+](=O)[O-])NCCO", "note": "[SR-2508, N-(2-hydroxyethyl)-2-(2-nitro-1-imidazolyl)acetamide]", "values": [{"measurement": "radiosensitizing efficiency relative to MIS", "setting": "EMT6 tumor cells", "value": "comparable radiosensitizing activity"}, {"measurement": "E7^1 (1-electron reduction potential)", "setting": "[1]", "value": -388, "unit": "mV"}, {"measurement": "electron affinity relative to MIS", "setting": "[1]", "value": "similar"}, {"measurement": "solubility", "setting": "physchem [7]", "value": "~200", "unit": "mg/mL"}, {"measurement": "acute toxicity relative to MIS", "setting": "BALB/c mice", "value": "about three to five times less"}, {"measurement": "factor by which less neurotoxic than MIS", "setting": "[5]", "value": "3-5"}, {"measurement": "Dose to Give Equivalent Neurotoxicity Relative to MIS", "setting": "[5]; four-and-one-half weeks", "value": "> 3.3"}, {"measurement": "octanol:water partition coefficient", "setting": "[8]", "value": 0.046}, {"measurement": "tumor/brain ratio relative to MIS", "setting": "[9]", "value": "an order of magnitude greater than MIS"}, {"measurement": "crossing of the blood/brain barrier relative to MIS", "setting": "[9]", "value": "to a lower degree than does MIS"}, {"measurement": "LD50", "setting": "in vivo [2]", "value": 4900, "unit": "mg/kg"}, {"measurement": "logP", "setting": "physchem [3]", "value": -1.34}, {"measurement": "clearance", "setting": "in vivo [10]", "value": 3.5, "unit": "mL/min/kg"}]}
{"molecule": "O=C(Cn1ccnc1[N+](=O)[O-])N(CCO)CCO", "note": "[SR-2555, N,N-di-(2-hydroxyethyl)-2-(2-nitro-1-imidazolyl)acetamide]", "values": [{"measurement": "radiosensitizing efficiency relative to MIS", "setting": "EMT6 tumor cells", "value": "comparable radiosensitizing activity"}, {"measurement": "E7^1 (1-electron reduction potential)", "setting": "[1]", "value": -398, "unit": "mV"}, {"measurement": "electron affinity relative to MIS", "setting": "[1]", "value": "similar"}, {"measurement": "solubility", "setting": "physchem [7]", "value": "> 300", "unit": "mg/mL"}, {"measurement": "AUC", "setting": "[4]; cerebrospinal fluid, AUC CSF, dogs, standardized for 0.5 mmole/kg", "value": 170, "unit": "µM·h"}, {"measurement": "clearance", "setting": "[4]; plasma", "value": 4.33, "unit": "mL/min/kg"}, {"measurement": "AUC", "setting": "[4]; plasma, AUC Plasma, dogs, standardized for 0.5 mmole/kg", "value": 1620, "unit": "µM·h"}, {"measurement": "clearance rate relative to MIS", "setting": "[4]; dogs, in words", "value": "considerably more rapid than for MIS"}, {"measurement": "penetration into brain, CSF and peripheral nerves relative to MIS", "setting": "[4]; dogs, in words", "value": "considerably lower"}, {"measurement": "total exposure of neural tissues (AUC) relative to MIS", "setting": "[4]; dogs, in words", "value": "significantly smaller than for MIS"}, {"measurement": "AUC PNS", "setting": "[4]; [12]", "value": "0.75 μ moles.hr.ml^ -1 or g^-1"}, {"measurement": "AUC Brain", "setting": "[4]; [12]", "value": "0.51 μ moles.hr.ml^ -1 or g^-1"}, {"measurement": "acute toxicity relative to MIS", "setting": "BALB/c mice", "value": "about three to five times less"}, {"measurement": "factor by which less neurotoxic than MIS", "setting": "[5]", "value": "3-5"}, {"measurement": "Performance Relative to Controls", "setting": "[5]; daily dose 3.0 mg/g, four-and-one-half weeks", "value": "1.07 ± 0.16"}, {"measurement": "Dose to Give Equivalent Neurotoxicity Relative to MIS", "setting": "[5]; four-and-one-half weeks", "value": "> 5"}, {"measurement": "octanol:water partition coefficient", "setting": "[8]", "value": 0.026}, {"measurement": "tumor/brain ratio relative to MIS", "setting": "[9]", "value": "an order of magnitude greater than MIS"}, {"measurement": "crossing of the blood/brain barrier relative to MIS", "setting": "[9]", "value": "to a lower degree than does MIS"}, {"measurement": "LD50", "setting": "in vivo [2]", "value": "> 7700", "unit": "mg/kg"}, {"measurement": "logP", "setting": "physchem [3]", "value": -1.59}, {"measurement": "Mean Peak Tumor Concentration", "setting": "[6]", "value": 1.30, "unit": "μ moles.g^-1"}, {"measurement": "peak tumor concentration relative to MIS", "setting": "[6]; dogs, i.v. bolus, in words", "value": "considerably higher than MIS"}, {"measurement": "time of peak tumor concentration relative to MIS", "setting": "[6]; dogs, i.v. bolus, in words", "value": "considerably earlier than MIS"}]}
{"molecule": "CC(=O)OCCNC(=O)Cn1ccnc1[N+](=O)[O-]", "note": "[acetate ester of SR-2508]", "values": [{"measurement": "peak plasma concentration of SR-2508 or SR-2555 after oral ester relative to oral parent drug", "setting": "[11]", "value": "significantly higher"}]}
{"molecule": "COC(=O)Cn1ccnc1[N+](=O)[O-]", "note": "[methyl 2-nitroimidazole-1-acetate]", "values": [{"measurement": "solubility", "setting": "physchem [7]", "value": 13.6, "unit": "mg/mL"}]}
